According to PMC7416749 (Journal of genetics and genomics = Yi chuan xue bao, 2020):

Key:
[1] = tested on: dP75 IBD-containing C-terminus region (residues 209–445); assay: Isothermal titration calorimetry; type: binding, Drosophila; conditions: ITC, 20 °C, mutant peptides 984–1004 compared with wild type
[2] = target: dP75 IBD-containing C-terminus region (residues 209–445) (Drosophila melanogaster); assay: ITC

| Molecule | effect of substitution in Jil-1 peptide 984–1004 on binding to dP75 (in words) [1] | Kd [2] |
| --- | --- | --- |
| Jil-1 peptide from the proximal site (…; residues 984–1004) |  | 0.8 µM |
| F989A: Jil-1 peptide 984–1004 with F989A substitution (EVQADAYGFDENAPPLPLPEE; UniProt Q9V3I5 984-1004, looked up, variant F989A) | dramatically reduced the binding |  |
| G991V: Jil-1 peptide 984–1004 with G991V substitution (EVQADFYVFDENAPPLPLPEE; UniProt Q9V3I5 984-1004, looked up, variant G991V) | dramatically reduced the binding |  |

Next, values leading:

| effect of substitution in Jil-1 peptide 984–1004 on binding to dP75 (in words) [1] | Kd [2] | Molecule |
| --- | --- | --- |
| dramatically reduced the binding |  | F992A: Jil-1 peptide 984–1004 with F992A substitution (EVQADFYGADENAPPLPLPEE; UniProt Q9V3I5 984-1004, looked up, variant F992A) |
|  | 120 µM | KREENFYGFSK [Jil-1 peptide at the distal site (…; residues 1102–1112)] |
